# According to patent US20070110693A1, “COMPOSITIONS CONTAINING PEPTIDE COPPER COMPLEXES AND SOFT TISSUE FILLERS, AND METHODS RELATED THERETO” (PROCYTE CORPORATION, priority 2002, published 2007):
# Key:
# [1] = tested on: glycosaminoglycan (GAG) synthesis; experiment: Subcutaneous stainless steel chamber implant model: glycosaminoglycan (GAG) content measured as uronic acid (UA); type: in vivo, rat
# Source text: (§1) The subcutaneous implantation of stainless steel chambers in rats provides a model for studying the synthesis of extracellular matrix components (collagen and glycosaminoglycan) by providing a recoverable site of new matrix synthesis. The assay involves implanting in each rat, two cylindrical stainless steel chambers (1 cm in diameter×2.5 cm long, 312 SS, 20 mesh, with Teflon end caps), one on each side of the rats' dorsal midline. After allowing for encapsulation of the chambers, both chambers on each rat were injected with 0.2 ml of a solution containing the representative soft tissue filler or saline on day 4 after implantation, and the test peptide copper compound (or saline alone as a control) on days 6, 8, 11, 13, 15, 16, and 18. Chambers were removed from the animals on day 30 after implantation for biochemical analysis.
# The chambers were also analyzed for glycosaminoglycan content, another component of the extracellular matrix or skin. Glycosaminoglycan (“GAG”) content was determined by quantifying the amount of uronic acid (“UA”), a carbohydrate component specific for GAGs. UA was determined by a colorimetric assay, as described using 2-hydroxydiphenyl as a reagent (see, e.g., Vilim, V., “Colorimetric Estimation of Uronic Acids using 2-hydroxydiphenyl as a Reagent,” Biomed. Biochim. Acta. 44 11/12 s: 1717-1720, 1985). GAG content was expressed as μg of UA per chamber.
# (§2) In this example, hydroxypropyl methyl cellulose was used as the soft tissue filler. A dose of 6 milligrams of the hydroxypropyl methyl cellulose, as a gel, was injected into each of the chambers. Injections of saline served as controls.
# (§3) Glycyl-L-histidyl-L-lysine:copper(II) (“GHK-Cu”), was used as the peptide copper complex used. The GHK-Cu was prepared at a molar ratio of 2 moles of peptide to one mole of copper(II), and dissolved in a saline solution at a concentration of 10 milligrams/milliliter. A dose of […] of GHK-Cu was injected for each day of treatment.
# (§4) The stimulation of collagen and GAG synthesis by injection of various peptide copper complexes has been determined by methods described in Example 1. The peptide copper complexes used were L-alanyl-L-histidyl-L-lysine:copper(II) (“AHK-Cu”), prepared at a molar ratio of 1 mole of peptide to one mole of copper(II), and glycyl-L-histidyl-L-lysyl-L-valyl-L-phenylalanyl-L-valine:copper(II) (“GHKVFV-Cu”), prepared at a molar ratio of 2 moles of peptide to one mole of copper(II). The peptide copper complexes were dissolved in a saline solution at a concentration of 10 milligrams/milliliter. A dose of 2.4 micromoles of peptide copper complex was injected on each treatment day.
# [2] = tested on: collagen synthesis; experiment: Subcutaneous stainless steel chamber implant model: collagen content measured as hydroxyproline (HYP); type: in vivo, rat
# Source text: as §1
# The chambers were lyophylized and the interior contents removed for biochemical analysis. The biochemical parameters examined include collagen content, the latter being measured as a hydroxyproline (“HYP”) content. The latter, an amino acid specific for collagen, was measured after acid hydrolysis and using a colormetric assay for HYP (see e.g., Bergman, I and Loxley, R., “The Determination of Hydroxyproline in Urine Hydrolysates,” Clin. Chim. Acta. 27: 347-349, 1970). Collagen content was expressed as μg of HYP per chamber or per milligram of protein.
# as §2, §3, §4
# The stimulation of collagen synthesis by injection of various peptide copper complexes has been determined by methods described in Examples 1 and 2. […]
# [3] = Example 2, 2.4 micromoles of peptide copper complex per treatment day, saline control 60 ± 5
# [4] = Example 3, 0.6 mg of peptide copper complex per treatment day, saline control 1838 ± 636
Substance,"μg Uronic Acid/Chamber Mean ± SEM [1, 3]","μg HYP/Chamber Mean ± SEM [2, 4]",further results
glycyl-L-histidyl-L-lysyl-L-valyl-L-phenylalanyl-L-valine:copper(II) [GHKVFV-Cu],79 ± 9 μg Uronic Acid/Chamber,,
L-alanyl-L-histidyl-L-lysine:copper(II) [AHK-Cu],105 ± 21 μg Uronic Acid/Chamber,,
glycyl-L-histidyl-L-leucine methyl ester:copper(II) [GHL-Me-Cu],,3357 ± 863 μg HYP/Chamber,
Glycyl-L-histidyl-L-lysine:copper(II) [GHK-Cu],,,"μg Uronic Acid/Chamber Mean ± SEM ([1]; Example 1, GHK-Cu 0.2 mg per treatment day in combination with soft tissue filler HPMC 6 mg on day 4, chambers removed day 30, saline control 46.3 ± 5.8): 88.1 ± 5.6 μg Uronic Acid/Chamber; μg Uronic Acid/Chamber Mean ± SEM ([1]; Example 1, agent alone (GHK-Cu 0.2 mg per treatment day on days 6-18, or HPMC gel 6 mg on day 4), chambers removed day 30, saline control 46.3 ± 5.8): 117.3 ± 12.9 μg Uronic Acid/Chamber; μg HYP/Chamber Mean ± SEM ([2]; Example 1, GHK-Cu 0.2 mg per treatment day in combination with soft tissue filler HPMC 6 mg on day 4, chambers removed day 30, saline control 1222 ± 111): 3423 ± 341 μg HYP/Chamber; μg HYP/Chamber Mean ± SEM ([2]; Example 1, agent alone (GHK-Cu 0.2 mg per treatment day on days 6-18, or HPMC gel 6 mg on day 4), chambers removed day 30, saline control 1222 ± 111): 4226 ± 265 μg HYP/Chamber"
glycyl-L-histidyl-L-leucine:copper(II) [GHL-Cu],,3619 ± 754 μg HYP/Chamber,
